Our source for the IC50, Ki and Alpha-2 selectivity Ki α1/Ki α2 values is US5389638A, “Tetrahydroisoquinolines as alpha-2 antagonists and biogenic amine uptake inhibitors” (Abbott Laboratories, priority 1993, dated 1995).

The subject of test [1] is norepinephrine uptake. Kind of test: inhibition of [3H]-amine uptake by synaptosome preparations, hypothalamus (norepinephrine). Type of test: biochemical, rat (male Sprague-Dawley). The settings on record: hypothalamus synaptosomes, [3H]-amine approx. 100 nM, 4 min, 37° C.; read-out: Biogenic amine uptake IC50 NE. The source says:
(§1) The primary method of evaluation of biogenic amine uptake activity has been the in vitro determination of the inhibition of radioactive amine uptake by synaptosome preparations of brain tissue. Basic procedures used are those described by Snyder and Coyle (Snyder, S. H. and J. T. Coyle, Regional Differences in ^3 H-Norepinephrine and ^3 H-Dopamine Uptake into Rat Brain Homogenates, Journal of Pharmacology and Experimental Therapeutics 1969, 165: 78-86) and Wong et al. (Wong, D. T., J-S. Horng and R. W. Fuller, Kinetics of Norepinephrine Accumulation into Synaptosomes of Rat Brain-Effects of Amphetamine and Chloroamphetamines, Biochemical Pharmacology 1973, 22:311-322). Briefly, male Sprague-Dawley rats were decapitated and regions of their brains dissected according to the procedures of Glowinski and Iversen (Glowinski, J. and L. L. Iversen, Regional Studies of Catecholamines in the Rat Brain--I: The Disposition of [^3 H]-Norepinephrine, [^3 H]-Dopamine and [^3 H]-DOPA in Various Regions of the Brain, Journal of Neurochemistry 1966, 13: 655-669). Hypothalamus (norepinephrine-), cortex (serotonin) and striatum (dopamine-uptake) were homogenized in 10, 5, and 20 volumes, respectively,of 0.32M sucrose using a Teflon/glass Potter-Elvehjem tissue grinder. Samples were centrifuged at 1000×G for 10 minutes and the supernatants harvested and used in the assay. Aliquots of tissue ([…]) were added to 750 mL of Kreb's solution (composition in mM; sodium chloride 118, potassium chloride 4.0, calcium chloride 1.13, potassium dihydrogen phosphate 1.12, magnesium sulfate 1.20, sodium bicarbonate 2.4, D-glucose 5.0, disodium ethylenediaminetetraacetic acid 1.5, ascorbic acid 1.0, and Pargyline, 12.5 mM, pH=7.4, aerated with 95% oxygen, 5% carbon dioxide), 50 mL of test compound diluted in 0.3 mM ascorbic acid, and […] [^3 H]-amine, final concentration approximately 100 nM. Tissues were incubated for 4 minutes at 37° C., followed by rapid vacuum filtration over Whatman GF/B filters and washed with 50 mM Tris-HCl (pH=7.4). Nonspecific uptake was estimated in duplicate samples incubated at 0 ° C. Data were analyzed as described previously (J. F. DeBemardis, D. J. Kerkman, D. L. Arendsen, S. A. Buckner, J. J. Kyncl, and A. A. Hancock, Conformationally Defined Adrenergic Agents. 5. Resolution, Absolute Configuration, and Pharmacological Characterization of the Enantiomers of 2-[5,6-Dihyroxy-1,2,3,4-tetrahydro-1-1-naphthyl]imidazoline: A Potent Agonist at a-Adrenoceptors, Journal of Medicinal Chemistry 1987, 30: 1011-1017).

The target of test [2] is T1, alpha-1 receptor (Rattus norvegicus, UniProt P15823).
T1 sequence (P15823 1-515): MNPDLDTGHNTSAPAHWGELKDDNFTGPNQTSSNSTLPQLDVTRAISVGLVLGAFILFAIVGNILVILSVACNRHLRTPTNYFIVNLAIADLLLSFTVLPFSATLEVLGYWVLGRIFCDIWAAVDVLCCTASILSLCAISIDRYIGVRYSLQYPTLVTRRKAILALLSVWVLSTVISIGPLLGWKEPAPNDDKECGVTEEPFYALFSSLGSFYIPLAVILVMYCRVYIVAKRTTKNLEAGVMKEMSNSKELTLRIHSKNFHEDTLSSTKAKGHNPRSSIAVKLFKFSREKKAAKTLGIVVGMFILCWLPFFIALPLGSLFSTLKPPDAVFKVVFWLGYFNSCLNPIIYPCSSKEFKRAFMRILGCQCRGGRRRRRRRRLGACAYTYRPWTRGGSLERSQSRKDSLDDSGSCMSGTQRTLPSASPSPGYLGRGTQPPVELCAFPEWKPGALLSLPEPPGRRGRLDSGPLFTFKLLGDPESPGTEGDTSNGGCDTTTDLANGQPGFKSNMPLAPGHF
Briefly: alpha-1 receptor radioligand binding, rat liver homogenates, [3H]-prazosin.

In test [3] the test system is serotonin (5-HT) uptake. Briefly: inhibition of [3H]-amine uptake by synaptosome preparations, cortex (serotonin). It is filed as biochemical, rat (male Sprague-Dawley). The settings on record: cortex synaptosomes, [3H]-amine approx. 100 nM, 4 min, 37° C.; read-out: Biogenic amine uptake IC50 5-HT.
Description: as §1

The test system of test [4] is dopamine uptake. Kind of test: inhibition of [3H]-amine uptake by synaptosome preparations, striatum (dopamine). It is filed as biochemical, rat (male Sprague-Dawley). The settings on record: striatum synaptosomes, [3H]-amine approx. 100 nM, 4 min, 37° C.; read-out: Biogenic amine uptake IC50 DA.
Description: as §1

Test [5] has as its target alpha-2 receptor. Briefly: alpha-2 receptor radioligand binding, rat cerebral cortices, [3H]-rauwolscine. As to conditions: for Ki: rat cerebral cortices, [3H]-rauwolscine, read-out: Radioligand binding Ki α2; for Alpha-2 selectivity Ki α1/Ki α2: ratio Ki α1/Ki α2.

Structures can show the parent of a compound that is named as a salt. Where two headings read alike, the source gives them in different places. Some results are limits rather than exact numbers.

Regarding `COc1ccc2c(c1)CCN(C)C2CN(C)CCc1ccccc1` (stereo not shown) [Example 2, 6-Methoxy-2-methyl-1-((N-methyl-N-(2-phenylethyl)amino)methyl)-1,2,3,4-tetrahydroisoquinoline dihydrochloride], the IC50 turned out to be 1240 nM in test [1], 7710 nM in test [3] and 26500 nM in test [4]. Further, the values for the Ki in test [2] and in test [5] were 175 nM and 4.6 nM, respectively. Also, in test [5], the Alpha-2 selectivity Ki α1/Ki α2 was determined as 38.
On to `COC(=O)[C@H]1[C@H]2C[C@H]3c4[nH]c5ccccc5c4CCN3C[C@H]2CC[C@@H]1O` [Rauw*, Rauwolscine, reference compound], for which the IC50 in test [1] is more than 100 nM. Besides, the inhibition constant (Ki) in test [2] amounted to 450 nM.
With `CN(CCc1ccccc1)CC1c2cc3c(cc2CCN1C)OCO3` (stereo not shown) [Example 7, 6,7-Methylenedioxy-2-methyl-1-((N-methyl-N-(2-phenylethyl)amino)methyl)-1,2,3,4-tetrahydroisoquinoline dihydrochloride], the IC50 came out at 589 nM in test [1], 6270 nM in test [3] and 49800 nM in test [4]. The Ki in test [2] amounted to 613 nM; in test [5], 6.4 nM. In test [5], the Alpha-2 selectivity Ki α1/Ki α2 turned out to be 96.
As for `CN1CCc2c(ccc3c2OCO3)[C@H]1CN1CC[C@H](c2ccccc2)C1` [Example 10, 5,6-Methylenedioxy-2-methyl-1(S)-[3'(R)-phenylpyrrolidino]methyl-1,2,3,4-tetrahydroisoquinoline dihydrochloride], the IC50 in test [1] worked out at 214 nM; in test [3] it was 754 nM; in test [4], 11700 nM. In addition, the figures for the Ki in test [2] and in test [5] were 374 nM and 20.2 nM, respectively. Moreover, the Alpha-2 selectivity Ki α1/Ki α2 in test [5] came to 18.5.
In the case of `CN1CCc2c(ccc3c2OCO3)[C@@H]1CN1CC[C@@H](c2ccccc2)C1` [Example 9, 5,6-Methylenedioxy-2-methyl-1(R)-[3'(S)-phenylpyrrolidino]methyl-1,2,3,4-tetrahydroisoquinoline dihyrochloride], the IC50 in test [1] is 426 nM; in test [3], 1580 nM; in test [4], 9540 nM. Besides, the Ki in test [2] was 168 nM; in test [5], 2.1 nM. For the same compound, in test [5], the Alpha-2 selectivity Ki α1/Ki α2 was 80.
In the case of `COc1cccc2c1CCN(C)C2CN1CCC(c2ccccc2)C1` (stereo not shown) [Example 3, 5-Methoxy-2-methyl-1-(3-phenylpyrrolidino)methyl-1,2,3,4-tetrahydroisoquinoline dihydrochloride], the IC50 was 621 nM in test [1], 4450 nM in test [3] and 9400 nM in test [4]. Also, the Ki in test [2] was found to be 306 nM; in test [5], 6 nM. Besides, the Alpha-2 selectivity Ki α1/Ki α2 in test [5] stood at 51.
On to `CN(CCc1ccccc1)C[C@H]1c2ccc3c(c2CCN1C)OCO3` [Example 12, 5,6-Methylenedioxy-2-methyl-1(R)-(((N-methyl-N-phenylethyl)amino)methyl)-1,2,3,4-tetrahydroisoquinoline dihydrochloride], for which the results for the IC50 in test [1], in test [3] and in test [4] were 1290 nM, 1410 nM and 25500 nM, respectively. The results for the inhibition constant (Ki) in test [2] and in test [5] were 1020 nM and 0.98 nM, respectively. Further, the Alpha-2 selectivity Ki α1/Ki α2 in test [5] turned out to be 1040.
As for `CN(CCc1ccccc1)CC1c2ccc3c(c2CCN1C)OCO3` (stereo not shown) [Example 4, 5,6-Methylenedioxy-2-methyl-1-((N-methyl-N-(2-phenylethyl)amino)methyl)-1,2,3,4-tetrahydroisoquinoline dihydrochloride], the IC50 was found to be 885 nM in test [1], 2600 nM in test [3] and 24700 nM in test [4]. Further, the Ki came to 621 nM in test [2] and 2.6 nM in test [5]. The Alpha-2 selectivity Ki α1/Ki α2 in test [5] is 238.
`CN1CCc2cc3c(cc2C1CN1CCC(c2ccccc2)C1)OCO3` (stereo not shown) [Example 6, 6,7-Methylenedioxy-2-methyl-1-(3-phenylpyrrolidino)methyl-1,2,3,4-tetrahydroisoquinoline dimethanesulfonate]: the Ki in test [2] was 72 nM. Also, in test [5], the Ki is 11.4 nM and the Alpha-2 selectivity Ki α1/Ki α2 is 6.
Take `CN1CCc2c(ccc3c2OCO3)C1CN1CCC(c2ccccc2)C1` (stereo not shown) [Example 5, 5,6-Methylenedioxy-2-methyl-1-N-(3-phenylpyrrolinodino)methyl-1,2,3,4-tetrahydroisoquinoline dihydrochloride]: the half-maximal inhibitory concentration (IC50) in test [1] is 249 nM; in test [3], 2030 nM; in test [4], 11400 nM. Moreover, the Ki in test [2] was determined as 180 nM; in test [5] it was 4.3 nM. Further, in test [5], the Alpha-2 selectivity Ki α1/Ki α2 stood at 42.
Regarding `CN1CCc2c(ccc3c2OCO3)[C@H]1CN1CC[C@@H](c2ccccc2)C1` [Example 11, 5,6-Methylenedioxy-2-methyl-1(S)-[3'(S)-phenylpyrrolidino]methyl-1,2,3,4-tetrahydroisoquinoline dihydrochloride], the IC50 amounted to 116 nM in test [1], 1700 nM in test [3] and 4950 nM in test [4]. In addition, the results for the inhibitory constant (Ki) in test [2] and in test [5] were 157 nM and 32.5 nM, respectively. In addition, the Alpha-2 selectivity Ki α1/Ki α2 in test [5] stood at 4.8.
On to `CN(CCc1ccccc1)C[C@@H]1c2ccc3c(c2CCN1C)OCO3` [Example 13, 5,6-Methylenedioxy-2-methyl-1(S)-(((N-methyl-N-phenylethyl)amino)methyl-1,2,3,4-tetrahydroisoquinolinedihydrochloride], for which the IC50 stood at 210 nM in test [1], 2890 nM in test [3] and 10600 nM in test [4]. Besides, the values for the Ki in test [2] and in test [5] were 542 nM and 7.1 nM, respectively. In addition, the Alpha-2 selectivity Ki α1/Ki α2 in test [5] turned out to be 76.
Turning to `CNCCC(Oc1ccc(C(F)(F)F)cc1)c1ccccc1` (stereo not shown) [Fluoxetine, reference compound], the IC50 in test [1] was found to be 1310 nM; in test [4], 15200 nM.
Consider `CN1CCc2c(ccc3c2OCO3)[C@@H]1CN1CC[C@H](c2ccccc2)C1` [Example 8, 5,6-Methylenedioxy-2-methyl-1(R)-(3'(R)-phenylpyrrolidino)methyl-1,2,3,4-tetrahydroisoquinoline dihydrochloride], for which the IC50 was determined as 489 nM in test [1], 1110 nM in test [3] and 9300 nM in test [4]. Besides, the Ki in test [2] (read-out: Radioligand binding Ki α1, rat liver homogenates, [3H]-prazosin) amounted to 446 nM; in test [5], 2.5 nM. In test [5], the Alpha-2 selectivity Ki α1/Ki α2 worked out at 178.
With `COc1ccc2c(c1)CCN(C)C2CN1CCC(c2ccccc2)C1` (stereo not shown) [Example 1, 6-Methoxy-2-methyl-1-(3-phenylpyrrolidino)methyl-1,2,3,4-tetrahydroisoquinoline dihydrochloride], the half-inhibitory concentration (IC50) in test [1] was determined as 4430 nM; in test [3], 9180 nM; in test [4], 28300 nM. Further, the inhibition constant (Ki) was determined as 120 nM in test [2] and 6.2 nM in test [5]. The Alpha-2 selectivity Ki α1/Ki α2 in test [5] came out at 19.
